The compounds below were run on murine macrophage-like cell line J774.A1 (assay: Inhibition of cholesterol esterification in mammalian cells (macrophage assay)). Conditions: J774.A1 macrophages loaded with ac-LDL, 14C-oleic acid; read-out: Cholesterol Esterification IC50.
Assay type: cell-based
Protocol: B. Assay of the Inhibition of Cholesterol Esterification in Mammalian Cells
The esterification of cholesterol was determined in the murine macrophage-like cell line J774.A1. Cells were seeded in 35 mm wells at a density of 300,000 cells per well in 2 mls of Dulbecco's Eagle Medium (DMEM) supplemented with 10% fetal bovine serum (FBS). Cells were incubated at 37° C. in an atmosphere of 5% CO2 and 93% humidity. After 24 hours the media was changed to 0.68 mls 10% FBS-DMEM containing 34 μg of acetylated human low density lipoprotein (ac-LDL) to increase the intracellular concentration of cholesterol and promote esterification. At 41 hours, various inhibitors were added to the cells in DMSO (10 μl/ml maximum). At 43 hours, the cells were pulsed with 0.1 mM ^14 C-oleic acid (10,000 dpm/nmol) complexed with BSA (bovine serum albumin) to follow cholesterol ester formation. The experiment was terminated at 45 hours by washing the monolayers 3 times with 3 ml of Tris-buffered saline at 4° C. The lipids were extracted by incubating the monolayers with 1.5 ml of hexane:isopropanol (3:2, v/v) for 30 min. under gentle agitation. During this period, 10,000 dpm 3H-cholesteryl linoleate and 10 μg of cholesteryl oleate were added as an internal standard and carrier respectively. The organic solvent was removed and the cells were washed with an additional 1.0 ml of hexane: isopropanol which was combined with the original extract. The cells were allowed to dry overnight, digested with 1.5 ml of 0.2N sodium hydroxide for 1 hour and an aliquot of the solubilized protein used for protein determination using the Lowry method. The organic extract was taken to dryness, the residue resuspended in 100 μl of chloroform and the lipids separated on silica gel impregnated glass fiber plates using a hexane:diethylether:acetic acid (170:30:1, v/v/v) solvent system. Individual lipids were visualized with iodine and the cholesteryl ester spot cut out and transferred to scintillation vials to determine the amount of radioactivity. The conversion of oleic acid to cholesteryl ester in the control averaged 0.54 […] and was increased upon the addition of ac-LDL to about 10.69±0.69 […]. […] It should be noted that many of the intermediates had inhibitory activity in the in vitro ACAT assay and in the macrophage assay.

Point of comparison: `CCCCCCCCNC(=O)N(CCCCCSc1nc(-c2ccccc2)c(-c2ccccc2)[nH]1)c1c(F)cc(F)cc1F` [Example 208], IC50 2800 nM. Against it:
- CCCCCCCN(CCCCCCCCSc1nc(-c2ccccc2)c(-c2ccccc2)[nH]1)C(=O)Nc1ccc(F)cc1F [Example 3, N'-(2,4-difluorophenyl)-N-[8-(4,5-diphenyl-1H-imidazol-2-ylthio)octyl]-N-heptylurea] — 6.2-fold higher, 17500 nM
- CCCCCCCN(CCCCCSc1nc(-c2ccccc2)c(-c2ccccc2)n1C)C(=O)Nc1ccc(F)cc1F [Example 6, N'-(2.4-difluorophenyl)-N-heptyl-N-[5-(1-methyl-4,5-diphenyl-1H-imidazol-2-ylthio)pentyl]urea] — within 1.5-fold, 3800 nM
- CCCCCCCN(CCCCCSc1nc(-c2ccccc2)c(-c2ccccc2)[nH]1)C(=O)NCCC [Example 8, N-[5-(4,5-diphenyl-1H-imidazol-2-ylthio)pentyl]-N-heptyl-N'-propylurea] — 5.6-fold lower, 500 nM
- CCCCCCCN(CCCCCSc1nc(-c2ccccc2)c(-c2ccccc2)[nH]1)C(=O)Nc1c(F)cc(F)cc1F [Example 71, N-[5-(4,5-diphenyl-1H-imidazol-2-ylthio)pentyl]-N-heptyl-N'-(2,4,6-trifluorophenyl)urea] — within 1.5-fold, 1900 nM
- CCCCCCCN(CCCCCSc1nc(-c2ccccc2)c(-c2ccccc2)[nH]1)C(=O)NC1CCCCC1 [Example 94, N'-cyclohexyl-N-[5-(4,5-diphenyl-1H-imidazol-2-ylthio)pentyl]-N-heptylurea] — 28-fold lower, 100 nM
- CCCCCCCN(CCCCCSc1nc(-c2ccccc2)c(-c2ccccc2)[nH]1)C(=O)NC(C)C [Example 105, N-[5-(4,5-diphenyl-1H-imidazol-2-ylthio)pentyl]-N-heptyl-N'-(1-methylethyl)urea] — 9.3-fold lower, 300 nM
- CCCCCCCN(CCCCCSc1nc(-c2ccccc2)c[nH]1)C(=O)Nc1ccc(F)cc1F [Example 160, N'-(2,4-difluorophenyl)-N-heptyl-N-[5-(4-phenyl-1H-imidazol-2-ylthio)pentyl]urea] — 1.8-fold lower, 1600 nM
- CCCCCCCN(CCSc1nc(-c2ccccc2)c(-c2ccccc2)[nH]1)C(=O)Nc1ccc(F)cc1F [Example 189, N'-(2,4-difluorophenyl)-N-[2-(4,5-diphenyl-1H-imidazol-2-ylthio)ethyl]-N-heptylurea] — within 1.5-fold, 2200 nM
- CCCN(CCCCCSc1nc(-c2ccccc2)c(-c2ccccc2)[nH]1)C(=O)Nc1ccc(F)cc1F [Example 190] — within 1.5-fold, 2200 nM
- CCCCCCCN(CCCCCSc1nc(-c2ccccc2)c(-c2ccccc2)[nH]1)C(=O)Nc1ccc(-c2ccccc2)cc1 [Example 192, N'-[(1,1'-biphenyl)-4-yl]-N-[5-(4,5-diphenyl-1H-imidazol-2-ylthio)pentyl]-N-heptylurea] — within 1.5-fold, 2000 nM
- CCCCCCCN(CCCCCSc1nc(-c2ccc(C(C)(C)C)cc2)c(-c2ccc(C(C)(C)C)cc2)[nH]1)C(=O)Nc1ccc(F)cc1F [Example 203] — 18-fold higher, 50000 nM
- CCCCCCCCNC(=O)N(CCCCCSc1nc(-c2ccccc2)c(-c2ccccc2)[nH]1)c1ccc(F)cc1F [Example 206, N-(2,4-difluorophenyl)-N-[5-(4,5-diphenyl-1H-imidazol-2-ylthio)pentyl]-N'-octylurea] — 7-fold lower, 400 nM
- CCCCCCCN(CCCCCSc1nc(-c2ccccc2)cn1-c1ccccc1)C(=O)Nc1ccc(F)cc1F [Example 259] — 3.1-fold lower, 900 nM
- CCCCCCCN(CCCCCSc1ncc(-c2ccccc2)n1-c1ccccc1)C(=O)Nc1ccc(F)cc1F [Example 260] — 2.1-fold higher, 6000 nM
- CCCCCCCN(CCCCCSc1nc(-c2ccccc2)c(-c2ccccc2)[nH]1)C(=S)Nc1ccc(F)cc1F [Example 276, N'-(2,4-difluorophenyl)-N-[5-(4,5-diphenyl-1H-imidazol-2-ylthio)pentyl]-N-heptylthiourea] — 2.2-fold higher, 6100 nM
- CCCCCCCN(CCCCC[S+]([O-])c1nc(-c2ccccc2)c(-c2ccccc2)[nH]1)C(=O)Nc1ccc(F)cc1F (centres unmarked) [Example 278, N'-(2,4-difluorophenyl)-N-[5-(4,5-diphenyl-1H-imidazol-2-ylsulfinyl)pentyl]-N-heptylurea] — 2.3-fold lower, 1200 nM
